Source: patent US20220370385A1, “COMPOSITIONS FOR USE IN INHIBITING SRC KINASE AND TREATING AND PREVENTING ASSOCIATED DISORDERS” (Enzene Biosciences Ltd., priority 2019, published 2022)

Legend:
SRC kinase = target: T1, SRC kinase (Homo sapiens, UniProt P12931); experiment: Kinase inhibitor screening assay (Promega kinase selectivity profiling, ADP-Glo); type: biochemical; parameters: dose or concentration left out as unconfirmed; conditions: panel of 16 tyrosine kinases
T1 construct: purchased Promega
Experimental: The kinase selectivity profiling systems from Promega was used to check the inhibitory activity of the purified compound against the broad panel of Tyrosine kinases. The kinase selectivity assays were assembled in a 384-well plate using 1 μl of the purified compound ([…]), 2 μl of each kinase working stock and 2 μl of the corresponding ATP/Substrate working stock as per the manufacturer protocol and kinase activity was quantified using the ADP-Glo™ kinase assay from Promega. The reaction assembled with kinase and corresponding ATP/Substrate without the purified compound was used as a positive control.

[1] = Repeated dose 7-day dose range finding study, intravenous bolus injection; type: in vivo; conditions: for Morbidity % / Morbidity No / Mortality % / Mortality No: i.v. bolus 7 days
Experimental: Repeated dose 7-day dose range finding study (DRF) of E05 through intravenous bolus injection was carried out in Wistar rats.

[2] = Repeated dose 7-day dose range finding study, oral gavage; type: in vivo
Experimental: Repeated dose 7-day dose range finding study (DRF) of E05 through oral gavage was carried out in Wistar rats.

[3] = Female G2 250 mg/kg b. wt., oral gavage 7 days
[4] = Female G3 500 mg/kg b. wt., oral gavage 7 days
[5] = Female G4 1000 mg/kg b. wt., oral gavage 7 days
[6] = Male G2 250 mg/kg b. wt., oral gavage 7 days
[7] = Male G3 500 mg/kg b. wt., oral gavage 7 days
[8] = Male G4 1000 mg/kg b. wt., oral gavage 7 days

T1 sequence (P12931 whole entry): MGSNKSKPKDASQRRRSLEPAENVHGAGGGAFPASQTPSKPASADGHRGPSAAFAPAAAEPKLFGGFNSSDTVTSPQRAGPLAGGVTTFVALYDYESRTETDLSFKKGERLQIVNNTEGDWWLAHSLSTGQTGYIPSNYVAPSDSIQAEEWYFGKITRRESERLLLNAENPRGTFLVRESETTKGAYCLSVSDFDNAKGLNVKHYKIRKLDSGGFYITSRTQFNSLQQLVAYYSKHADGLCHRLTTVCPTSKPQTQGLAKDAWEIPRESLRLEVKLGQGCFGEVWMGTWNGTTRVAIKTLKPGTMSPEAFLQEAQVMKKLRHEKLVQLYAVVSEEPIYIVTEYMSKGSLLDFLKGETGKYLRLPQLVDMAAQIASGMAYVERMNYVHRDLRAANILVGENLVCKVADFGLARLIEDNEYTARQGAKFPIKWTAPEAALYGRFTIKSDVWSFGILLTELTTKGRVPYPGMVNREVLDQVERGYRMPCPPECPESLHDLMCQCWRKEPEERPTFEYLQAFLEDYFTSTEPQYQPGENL

## O=C(O)CCc1ccc(O)c(O)c1 [E05, 3-(3,4-Dihydroxyphenyl) propanoic acid]
SRC kinase
  SRC kinase activity: inhibited
[1]; Female G2 125 mg/kg b. wt
  Morbidity %: 0%
  Morbidity No: 0
  Mortality %: 0%
  Mortality No: 0
[1]; Female G3 250 mg/kg b. wt
  Morbidity %: 0%
  Morbidity No: 0
  Mortality %: 0%
  Mortality No: 0
[1]; Female G4 500 mg/kg b. wt
  Morbidity %: 0%
  Morbidity No: 0
  Mortality %: 0%
  Mortality No: 0
[1]; Male G2 125 mg/kg b. wt
  Morbidity %: 0%
  Morbidity No: 0
  Mortality %: 0%
  Mortality No: 0
[1]; Male G3 250 mg/kg b. wt
  Morbidity %: 0%
  Morbidity No: 0
  Mortality %: 0%
  Mortality No: 0
[1]; Male G4 500 mg/kg b. wt
  Morbidity %: 0%
  Morbidity No: 0
  Mortality %: 0%
  Mortality No: 0
[1]; up to 500 mg/kg b. wt., daily intravenous bolus, 7 consecutive days
  systemic toxicity: did not produce any systemic toxicity
[2]; [3]
  Morbidity %: 0%
  Morbidity No: 0
  Mortality %: 0%
  Mortality No: 0
[2]; [4]
  Morbidity %: 0%
  Morbidity No: 0
  Mortality %: 0%
  Mortality No: 0
[2]; [5]
  Morbidity %: 0%
  Morbidity No: 0
  Mortality %: 0%
  Mortality No: 0
[2]; [6]
  Morbidity %: 0%
  Morbidity No: 0
  Mortality %: 0%
  Mortality No: 0
[2]; [7]
  Morbidity %: 0%
  Morbidity No: 0
  Mortality %: 0%
  Mortality No: 0
[2]; [8]
  Morbidity %: 0%
  Morbidity No: 0
  Mortality %: 0%
  Mortality No: 0
[2]; male and female rats, oral gavage 7 days
  food consumption, organ weight and relative organ weight: No treatment-related changes
[2]; rat, in vivo, po
  mortality, morbidity or clinical sign: no mortality, morbidity or clinical sign
[2]; up to 1000 mg/kg b. wt., orally through gavage, 7 consecutive days
  toxicity: did not produce any toxicity
